Several values for one entry are separate records, joined by “and”; a condition that tells them apart may be missing. Equal values may be shown once. Entries after “also recorded” stand apart in the source; their conditions may differ.
Test system: HCMV strain AD 169
Experiment: Rabbit HCMV ascending dose efficacy and time course recovery (Example 7)
Details: for Vitreo-retinal score: sum of both eyes
[1] = day 3, PALA 75 mg/kg/d, with or without steroid
[2] = day 3, PALA 50 or DHPG 10 mg/kg/d
[3] = day 4, PALA 75 mg/kg/d, with or without steroid
[4] = day 4, PALA 50 or DHPG 10 mg/kg/d
[5] = day 5, PALA 75 mg/kg/d, with or without steroid
[6] = day 5, PALA 50 or DHPG 10 mg/kg/d

O=C(O)C[C@H](NC(=O)CP(=O)(O)O)C(=O)O [PALA]
HCMV recovery vs placebo (PALA 75 mg/kg/day): comparable to placebo therapy
clinical disease / efficacy (PALA 75 mg/kg/day i.v., with or without steroid): vitreitis increased through day 6 post inoculation; also recorded: not improved when compared to the 50 mg/kg/day PALA dose or to the 10 mg/kg/day DHPG dose
HCMV recovery vs placebo (PALA 100 mg/kg/day): significantly higher than HCMV recovery in placebo treated animals
clinical disease / efficacy (PALA 100 mg/kg/day i.v.): Both the vitreitis and optic nerve head disease severity were increased compared to other single-agent PALA, DHPG and placebo therapies; also recorded: not effective in reducing the clinical disease progression or HCMV recovery
toxicity (PALA 100 mg/kg/day i.v.): toxic to the animals; also recorded: animal died prior
clinical disease / efficacy (PALA 50 or DHPG 10 mg/kg/day i.v.): vitreitis increased through day 6 post inoculation; also recorded: optic nerve head pathology peaked on day 4 after inoculation and decreased to low levels
HCMV Recovered, OD [1]: +
HCMV Recovered, OS [1]: +
HCMV Titer, OD [1]: 10^5 pfu and 10^4 pfu
HCMV Titer, OS [1]: 10^4 pfu
HCMV recovery frequency [1]: 4/4
Optic neuritis score (ONH) [1]: 2.0
Vitreo-retinal score [1]: 2.25 and 1.5
Average HCMV titer (day 3, PALA 100 mg/kg/d): 10^4 pfu
HCMV Recovered, OD (day 3, PALA 100 mg/kg/d): +
HCMV Recovered, OS (day 3, PALA 100 mg/kg/d): +
HCMV Titer, OD (day 3, PALA 100 mg/kg/d): 10^4 pfu
HCMV Titer, OS (day 3, PALA 100 mg/kg/d): 10^3 pfu
HCMV recovery frequency (day 3, PALA 100 mg/kg/d): 4/4
Optic neuritis score (ONH) (day 3, PALA 100 mg/kg/d): 2.0 and 3.0
Vitreo-retinal score (day 3, PALA 100 mg/kg/d): 1.0 and 0.75
HCMV Recovered, OD [2]: +
HCMV Recovered, OS [2]: +
HCMV Titer, OD [2]: 10^3 pfu and 10^4 pfu
HCMV Titer, OS [2]: 10^4 pfu and 10^3 pfu
HCMV recovery frequency [2]: 4/4
Optic neuritis score (ONH) [2]: 2.0
Vitreo-retinal score [2]: 1.0 and 1.5
HCMV Recovered, OD [3]: +
HCMV Recovered, OS [3]: + and -
HCMV Titer, OD [3]: 10^4 pfu
HCMV Titer, OS [3]: 10^3 pfu
HCMV recovery frequency [3]: 3/4
Optic neuritis score (ONH) [3]: 4.0 and 5.0
Vitreo-retinal score [3]: 2.75 and 3.5
Average HCMV titer (day 4, PALA 100 mg/kg/d): 10^3 pfu
HCMV Recovered, OD (day 4, PALA 100 mg/kg/d): +
HCMV Recovered, OS (day 4, PALA 100 mg/kg/d): +
HCMV Titer, OD (day 4, PALA 100 mg/kg/d): 10^5 pfu and 10^3 pfu
HCMV Titer, OS (day 4, PALA 100 mg/kg/d): 10^3 pfu and 10^4 pfu
HCMV recovery frequency (day 4, PALA 100 mg/kg/d): 3/4
Optic neuritis score (ONH) (day 4, PALA 100 mg/kg/d): 6.0 and 5.0
Vitreo-retinal score (day 4, PALA 100 mg/kg/d): 4.5 and 3.75
HCMV Recovered, OD [4]: - and +
HCMV Recovered, OS [4]: -
HCMV Titer, OD [4]: 10^4 pfu
HCMV recovery frequency [4]: 1/4
Optic neuritis score (ONH) [4]: 2.0 and 3.0
Average HCMV titer [5]: 10^2 pfu
HCMV Recovered, OD [5]: -
HCMV Recovered, OS [5]: - and +
HCMV Titer, OS [5]: 10^2 pfu
HCMV recovery frequency [5]: 1/4
Optic neuritis score (ONH) [5]: 3.0 and 5.0
Vitreo-retinal score [5]: 1.75 and 3.5
Average HCMV titer (day 5, PALA 100 mg/kg/d): 10^2 pfu
HCMV Recovered, OD (day 5, PALA 100 mg/kg/d): -
HCMV Recovered, OS (day 5, PALA 100 mg/kg/d): + and -
HCMV Titer, OS (day 5, PALA 100 mg/kg/d): 10^2 pfu
HCMV recovery frequency (day 5, PALA 100 mg/kg/d): 1/4
HCMV titer (day 5, PALA 100 mg/kg/d): 10^2 pfu/ml
Optic neuritis score (ONH) (day 5, PALA 100 mg/kg/d): 5.0 and 4.0
Vitreo-retinal score (day 5, PALA 100 mg/kg/d): 3.5 and 3.0
Average HCMV titer [6]: 10^1 pfu
HCMV Recovered, OD [6]: - and +
HCMV Recovered, OS [6]: + and -
HCMV Titer, OD [6]: 10^2 pfu
HCMV Titer, OS [6]: 10^2 pfu
HCMV recovery frequency [6]: 2/4
Optic neuritis score (ONH) [6]: 1.0

Source: patent US5491135A (priority 1993, dated 1996)
